Test system: Gram-positive strains
Assay: Whole-cell antibacterial MIC assay (NCCLS serial dilution), Gram-positive strains
Assay type: cell-based
Settings: each of the Gram-positive strains examined, including strains with resistance to tetracycline, methicillin, and vancomycin
Description: The efficiencies of the synthetic sequences have allowed for the preparation of sufficient quantities of each tetracycline analog for antibacterial testing using standard serial-dilution techniques (5-20 mg amounts). Minimum inhibitory concentrations (MICs) are reported for each analog in whole-cell antimicrobial assays using five Gram-positive and five Gram-negative organisms (FIG. 18).
Whole-cell antibacterial activity was determined according to methods recommended by the NCCLS-(National Committee for Clinical Laboratory Standards. 2002. Methods for dilution antimicrobial susceptibility tests for bacteria that grow aerobically: approved standard-fifth edition. NCCLS document M100-S12. National Committee for Clinical Laboratory Standards. Wayne, Pa.; incorporated herein by reference). Test compounds were dissolved in dimethyl sulfoxide (DMSO) and the resulting solutions were diluted in water (1:10) to produce stock solutions with a final concentration of 256 μg tetracycline analog per mL. In a 96-well microtiter plate, 50-μL aliquots of stock solutions were diluted serially into cation-adjusted Mueller-Hinton broth (MHB; Becton-Dickinson, Cockeysville, Md.). Test organisms (50 μL aliquots of solutions […]) were then added to the appropriate wells of the microtiter plate. […] The MIC was the lowest concentration of compound determined to inhibit visible growth. […]

For `CN(C)[C@@H]1C(O)=C(C(N)=O)C(=O)[C@@]2(O)C(O)=C3C(=O)c4c(cc5ccccc5c4O)C[C@H]3C[C@@H]12` [compound 6], the “antibacterial activity (MIC) compared with tetracycline” value was “activity equal to or greater than tetracycline”.
